Results taken from ChEMBL document CHEMBL1201862, “PubChem BioAssay data set” (2004).
The source made the active and inactive calls.

Experiments:
[1] = target: Aryl hydrocarbon receptor (Homo sapiens, UniProt P35869); settings: Potency;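 further: confirmatory quantitative high-throughput screen measuring activation of the AhR signaling pathway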
[2] = target: T1, Insulin-degrading enzyme (Homo sapiens, UniProt P14735); test: cellular IDE activation of Abeta substrate cleavage – fluorescence polarization, HEK cells, dose response (AID 588439); assay type: functional, cell-based
T1 sequence (P14735 whole entry): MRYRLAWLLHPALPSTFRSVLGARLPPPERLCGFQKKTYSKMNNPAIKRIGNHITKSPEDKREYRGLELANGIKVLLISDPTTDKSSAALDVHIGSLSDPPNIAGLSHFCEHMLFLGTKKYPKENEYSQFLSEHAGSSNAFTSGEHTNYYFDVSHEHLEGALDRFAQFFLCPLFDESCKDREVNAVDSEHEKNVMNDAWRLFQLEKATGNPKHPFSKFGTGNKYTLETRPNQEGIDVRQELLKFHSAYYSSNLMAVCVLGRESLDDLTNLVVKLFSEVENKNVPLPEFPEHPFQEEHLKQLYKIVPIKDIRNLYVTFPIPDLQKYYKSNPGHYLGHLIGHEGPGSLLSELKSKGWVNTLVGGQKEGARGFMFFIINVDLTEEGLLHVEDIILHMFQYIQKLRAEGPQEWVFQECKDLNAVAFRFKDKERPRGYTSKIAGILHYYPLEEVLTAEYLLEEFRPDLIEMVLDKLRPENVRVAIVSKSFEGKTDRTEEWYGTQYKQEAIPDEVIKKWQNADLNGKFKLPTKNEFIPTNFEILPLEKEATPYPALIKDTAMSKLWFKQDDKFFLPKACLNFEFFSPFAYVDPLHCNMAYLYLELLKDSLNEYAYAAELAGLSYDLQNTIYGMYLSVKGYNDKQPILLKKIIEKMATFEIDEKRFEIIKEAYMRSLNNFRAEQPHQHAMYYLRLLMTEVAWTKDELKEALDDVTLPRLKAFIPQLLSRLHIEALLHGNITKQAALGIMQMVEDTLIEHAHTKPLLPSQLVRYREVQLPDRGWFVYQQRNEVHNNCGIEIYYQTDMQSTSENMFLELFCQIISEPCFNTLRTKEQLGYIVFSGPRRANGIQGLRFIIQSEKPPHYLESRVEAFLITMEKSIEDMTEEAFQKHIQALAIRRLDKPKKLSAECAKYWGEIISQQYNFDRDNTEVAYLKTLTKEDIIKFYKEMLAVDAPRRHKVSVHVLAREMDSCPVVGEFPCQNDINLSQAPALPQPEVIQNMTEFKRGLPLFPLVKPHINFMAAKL

[3] = tested on: HEK293; test: membrane integrity loss in HEK cells – cell-based, fluorescence, cytotoxicity control for IDE activator project, dose response (AID 588440); assay type: functional; settings: Homo sapiens;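 further: cytotoxicity by LDH release measuring loss of membrane integrity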
[4] = target: T2, Ubiquitin-conjugating enzyme E2 N (Homo sapiens, UniProt P61088); assay type: functional
T2 sequence (P61088 whole entry): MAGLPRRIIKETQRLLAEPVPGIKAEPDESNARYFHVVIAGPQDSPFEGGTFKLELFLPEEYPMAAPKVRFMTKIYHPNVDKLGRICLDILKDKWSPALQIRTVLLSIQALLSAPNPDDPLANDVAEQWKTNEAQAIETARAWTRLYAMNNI

[5] = target: T3, Coagulation factor XII (Homo sapiens, UniProt P00748); assay type: functional;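 further: activated factor XIIa alpha cleaving a fluorogenic AMC peptide substrate; inhibitor potency from loss of enzyme activity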
T3 sequence (P00748 whole entry): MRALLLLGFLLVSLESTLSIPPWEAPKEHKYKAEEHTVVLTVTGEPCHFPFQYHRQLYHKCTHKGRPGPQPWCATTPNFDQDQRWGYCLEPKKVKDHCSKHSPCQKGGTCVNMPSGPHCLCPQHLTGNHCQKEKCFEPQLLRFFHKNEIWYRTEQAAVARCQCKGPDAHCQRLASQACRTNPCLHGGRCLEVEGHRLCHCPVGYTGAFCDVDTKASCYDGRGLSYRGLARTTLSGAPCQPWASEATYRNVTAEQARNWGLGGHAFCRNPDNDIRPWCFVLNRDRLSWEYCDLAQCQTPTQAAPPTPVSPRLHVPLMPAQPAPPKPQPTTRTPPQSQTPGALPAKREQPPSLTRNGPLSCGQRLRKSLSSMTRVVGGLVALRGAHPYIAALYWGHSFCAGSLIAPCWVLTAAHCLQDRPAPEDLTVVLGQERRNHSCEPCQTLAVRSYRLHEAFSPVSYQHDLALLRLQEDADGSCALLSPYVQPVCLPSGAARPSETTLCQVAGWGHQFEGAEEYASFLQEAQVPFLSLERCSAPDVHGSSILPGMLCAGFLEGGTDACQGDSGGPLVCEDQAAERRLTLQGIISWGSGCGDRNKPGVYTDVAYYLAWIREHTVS

[6] = general mammalian cell viability loss – activator set, cherry-pick, cytotoxicity control for miR-122 modulator project, dose response (AID 720690); assay type: functional, cell-based;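 further: HEK293T human cells scored for general mammalian cytotoxicity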
[7] = target: T4, DNA repair protein RAD52 homolog (Homo sapiens, UniProt P43351); assay type: functional, biochemical
T4 sequence (P43351 whole entry): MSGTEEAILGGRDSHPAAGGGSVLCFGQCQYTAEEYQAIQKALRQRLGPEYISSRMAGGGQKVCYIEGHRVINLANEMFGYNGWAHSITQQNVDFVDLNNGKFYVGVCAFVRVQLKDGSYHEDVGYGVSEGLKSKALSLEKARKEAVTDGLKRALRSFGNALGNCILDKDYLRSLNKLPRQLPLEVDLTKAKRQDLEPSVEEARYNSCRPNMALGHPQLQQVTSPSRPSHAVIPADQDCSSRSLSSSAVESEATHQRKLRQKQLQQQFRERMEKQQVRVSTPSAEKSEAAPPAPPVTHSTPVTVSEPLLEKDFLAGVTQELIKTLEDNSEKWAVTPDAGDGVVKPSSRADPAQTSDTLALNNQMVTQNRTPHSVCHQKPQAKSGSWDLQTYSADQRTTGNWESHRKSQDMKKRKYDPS

[8] = target: T5, Bcl-2-related protein A1 (Mus musculus, UniProt Q07440); assay type: functional;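 further: confirmatory dose–response counterscreen on Bfl-1, used to check hits from a UBC13 polyubiquitin inhibitor campaign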
T5 sequence (Q07440 whole entry): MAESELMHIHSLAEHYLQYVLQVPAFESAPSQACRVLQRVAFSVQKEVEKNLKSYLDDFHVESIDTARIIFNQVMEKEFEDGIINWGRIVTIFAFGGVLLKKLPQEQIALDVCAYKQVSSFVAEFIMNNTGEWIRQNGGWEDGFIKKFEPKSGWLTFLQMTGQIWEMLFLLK

[9] = viability loss in THP-1 monocytes – THP-1 cells, cytotoxicity control for Vif-APOBEC3G degradation inhibitor project, dose response (AID 1117359); assay type: functional; settings: THP-1
[10] = microbe, parasite or virus in culture; assay type: functional; settings: Mycobacterium tuberculosis
[11] = target: T2, Ubiquitin-conjugating enzyme E2 N; assay type: functional; remark: listed apart in the source
[12] = activation of miR-122 Renilla sensor silencing – cell-based, Huh7 psiCHECK-miR122, Renilla luciferase, cherry-picked, dose response (AID 651956); assay type: functional;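 further: huh7 hepatoma cells stably carrying a psiCHECK-2 miR-122 sensor plasmid; renilla luciferase signal reporting endogenous miR-122 activity after 48 h compound exposure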
[13] = tested on: HEK293; test: optical interference in Abeta FP readout, dose response, artefact control for IDE activator project, biochemical, fluorescence polarization (AID 588442); assay type: functional, cell-based; settings: Homo sapiens
[14] = target: T1, Insulin-degrading enzyme; test: recombinant IDE activation, cell-free – biochemical, fluorescence polarization, counter-screen for IDE activator project, dose response (AID 588681)
[15] = target: Melanin-concentrating hormone receptor 1 (Homo sapiens, UniProt Q99705); test: Late-stage fluorescence-based counterscreen for antagonists of the G-protein coupled receptor 7 (GPR7): cell-based dose response assay to identify antagonists of the melanin-concentrating hormone receptor 1 (MCHR1) Set 5.; assay type: functional
[16] = target: Neuropeptides B/W receptor type 1 (Homo sapiens, UniProt P48145); test: human NPBW1 receptor blockade, IC50 – cell-based, fluorescence, dose response, set 5, late-stage follow-up (AID 588566); assay type: functional
[17] = target: cAMP-dependent protein kinase catalytic subunit alpha (Homo sapiens, UniProt P17612); assay type: functional
[18] = target: Serine/threonine-protein kinase pim-1 (Homo sapiens, UniProt P11309); assay type: functional
[19] = target: MAP kinase-interacting serine/threonine-protein kinase 2 (Homo sapiens, UniProt Q9HBH9); assay type: functional
[20] = target: Glycogen synthase kinase-3 beta (Homo sapiens, UniProt P49841); assay type: functional;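 further: value comes from a broad kinome profiling panel, with GSK3B as the panel member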
[21] = target: Mitogen-activated protein kinase kinase kinase kinase 4 (Homo sapiens, UniProt O95819); assay type: functional
[22] = target: Interleukin-1 receptor-associated kinase 4 (Homo sapiens, UniProt Q9NWZ3); assay type: functional
[23] = target: Cell division cycle 7-related protein kinase (Homo sapiens, UniProt O00311); assay type: functional;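 further: value obtained from a kinome-wide kinase panel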
[24] = target: DNA dC->dU-editing enzyme APOBEC-3A (Homo sapiens, UniProt P31941); test: SAR analysis of small molecule inhibitors of APOBEC3A DNA Deaminase via a fluorescence-based single-stranded DNA deaminase assay.; assay type: functional; settings: read-out: IC50_Mean
[25] = target: DNA dC->dU-editing enzyme APOBEC-3G (Homo sapiens, UniProt Q9HC16); test: inhibition of APOBEC3G ssDNA deamination – biochemical, fluorescence, single-stranded DNA substrate, SAR follow-up (AID 602136); assay type: functional; settings: read-out: IC50_Mean
[26] = target: T6, Apoptotic protease-activating factor 1 (Homo sapiens, UniProt O14727); test: SAR analysis of small molecule Activators of Apaf-1 in a Fluorescent assay.; assay type: functional; settings: read-out: EC50_Mean;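 further: caspase-3 cleavage of fluorogenic Rh110 DEVD substrate downstream of apoptosome activation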
T6 sequence (O14727 whole entry): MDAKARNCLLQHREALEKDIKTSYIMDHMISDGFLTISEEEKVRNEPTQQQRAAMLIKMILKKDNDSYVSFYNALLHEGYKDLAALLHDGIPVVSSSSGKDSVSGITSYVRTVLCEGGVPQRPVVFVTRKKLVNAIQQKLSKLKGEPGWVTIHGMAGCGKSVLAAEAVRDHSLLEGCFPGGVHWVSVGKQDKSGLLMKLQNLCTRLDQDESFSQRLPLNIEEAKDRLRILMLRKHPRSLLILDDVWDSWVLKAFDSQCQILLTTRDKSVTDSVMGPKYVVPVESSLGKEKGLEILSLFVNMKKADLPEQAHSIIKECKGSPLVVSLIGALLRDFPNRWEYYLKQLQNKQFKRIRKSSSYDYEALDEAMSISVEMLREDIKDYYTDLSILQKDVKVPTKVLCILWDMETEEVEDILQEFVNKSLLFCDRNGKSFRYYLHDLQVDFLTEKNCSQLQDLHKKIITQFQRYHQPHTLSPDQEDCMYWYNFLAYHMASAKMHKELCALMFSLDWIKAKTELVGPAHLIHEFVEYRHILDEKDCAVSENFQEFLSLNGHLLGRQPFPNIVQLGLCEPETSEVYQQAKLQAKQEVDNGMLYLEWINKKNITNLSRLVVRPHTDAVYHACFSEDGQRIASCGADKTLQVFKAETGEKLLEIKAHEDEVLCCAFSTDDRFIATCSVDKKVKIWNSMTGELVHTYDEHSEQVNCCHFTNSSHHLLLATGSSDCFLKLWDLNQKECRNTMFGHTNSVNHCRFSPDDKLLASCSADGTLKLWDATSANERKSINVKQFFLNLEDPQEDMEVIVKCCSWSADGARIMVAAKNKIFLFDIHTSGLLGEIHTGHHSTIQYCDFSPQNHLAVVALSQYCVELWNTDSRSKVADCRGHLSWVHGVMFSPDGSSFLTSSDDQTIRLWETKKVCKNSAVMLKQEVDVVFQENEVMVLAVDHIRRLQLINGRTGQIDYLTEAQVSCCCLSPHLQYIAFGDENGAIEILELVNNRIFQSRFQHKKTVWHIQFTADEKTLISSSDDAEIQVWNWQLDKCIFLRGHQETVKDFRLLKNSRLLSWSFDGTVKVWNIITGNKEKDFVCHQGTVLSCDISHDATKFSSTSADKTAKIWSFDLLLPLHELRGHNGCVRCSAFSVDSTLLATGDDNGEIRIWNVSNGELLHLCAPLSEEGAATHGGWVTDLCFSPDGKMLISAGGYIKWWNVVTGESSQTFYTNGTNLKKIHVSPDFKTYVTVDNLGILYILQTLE

[27] = target: Activin receptor type-1 (Homo sapiens, UniProt Q04771); test: Navigating the Kinome. Panel member name: ACVR1; assay type: functional
Sequence of Activin receptor type-1 (Q04771 whole entry): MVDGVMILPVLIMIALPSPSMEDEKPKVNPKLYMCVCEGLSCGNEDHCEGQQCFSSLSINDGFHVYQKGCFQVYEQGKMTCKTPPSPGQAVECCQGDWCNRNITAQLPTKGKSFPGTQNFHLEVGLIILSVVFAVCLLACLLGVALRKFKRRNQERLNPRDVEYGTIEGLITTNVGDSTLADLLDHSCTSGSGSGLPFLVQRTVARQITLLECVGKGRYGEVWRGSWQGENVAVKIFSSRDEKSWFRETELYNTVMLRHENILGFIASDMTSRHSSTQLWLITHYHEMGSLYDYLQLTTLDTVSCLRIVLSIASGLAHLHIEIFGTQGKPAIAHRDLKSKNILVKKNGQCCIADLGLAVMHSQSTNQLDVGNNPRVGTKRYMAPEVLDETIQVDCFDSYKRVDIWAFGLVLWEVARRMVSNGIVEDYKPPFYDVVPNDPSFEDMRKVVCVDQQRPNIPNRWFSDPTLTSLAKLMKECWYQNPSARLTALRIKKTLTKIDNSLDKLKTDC

Sequence of DNA dC->dU-editing enzyme APOBEC-3G (Q9HC16 whole entry): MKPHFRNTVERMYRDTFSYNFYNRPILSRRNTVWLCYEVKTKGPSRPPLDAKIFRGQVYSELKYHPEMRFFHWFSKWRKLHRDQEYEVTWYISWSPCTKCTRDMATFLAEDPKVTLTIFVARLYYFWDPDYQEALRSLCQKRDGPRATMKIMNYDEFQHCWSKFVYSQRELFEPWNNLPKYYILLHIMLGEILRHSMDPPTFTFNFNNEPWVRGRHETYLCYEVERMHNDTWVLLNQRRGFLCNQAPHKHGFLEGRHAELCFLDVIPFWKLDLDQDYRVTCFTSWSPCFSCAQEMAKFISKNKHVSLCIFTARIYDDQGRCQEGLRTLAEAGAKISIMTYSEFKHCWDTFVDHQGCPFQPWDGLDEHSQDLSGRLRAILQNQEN
Sequence of Neuropeptides B/W receptor type 1 (P48145 whole entry): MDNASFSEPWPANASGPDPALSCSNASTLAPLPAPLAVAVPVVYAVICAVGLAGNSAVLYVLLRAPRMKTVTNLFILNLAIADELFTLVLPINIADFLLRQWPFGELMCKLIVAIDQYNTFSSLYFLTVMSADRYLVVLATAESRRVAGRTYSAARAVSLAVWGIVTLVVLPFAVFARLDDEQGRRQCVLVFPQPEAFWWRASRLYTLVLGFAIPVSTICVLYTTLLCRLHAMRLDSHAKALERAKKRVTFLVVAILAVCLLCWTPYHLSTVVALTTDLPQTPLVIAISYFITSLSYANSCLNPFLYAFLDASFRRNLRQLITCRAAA
Sequence of DNA dC->dU-editing enzyme APOBEC-3A (P31941 whole entry): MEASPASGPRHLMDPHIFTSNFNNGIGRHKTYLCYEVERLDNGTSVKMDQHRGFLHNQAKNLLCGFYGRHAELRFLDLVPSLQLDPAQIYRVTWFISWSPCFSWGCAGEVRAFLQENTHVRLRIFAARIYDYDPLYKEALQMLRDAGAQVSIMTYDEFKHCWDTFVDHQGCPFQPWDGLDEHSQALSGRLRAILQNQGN
Sequence of Melanin-concentrating hormone receptor 1 (Q99705 whole entry): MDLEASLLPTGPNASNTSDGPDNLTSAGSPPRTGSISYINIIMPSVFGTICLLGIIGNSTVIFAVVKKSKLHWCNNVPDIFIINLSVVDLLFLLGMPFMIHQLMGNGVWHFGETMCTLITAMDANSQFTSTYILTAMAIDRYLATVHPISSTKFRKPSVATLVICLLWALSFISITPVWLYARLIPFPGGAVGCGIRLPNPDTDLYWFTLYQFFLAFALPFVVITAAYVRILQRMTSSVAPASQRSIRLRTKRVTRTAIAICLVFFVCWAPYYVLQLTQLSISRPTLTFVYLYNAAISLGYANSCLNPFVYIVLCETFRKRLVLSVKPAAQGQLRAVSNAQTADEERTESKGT
Sequence of Glycogen synthase kinase-3 beta (P49841 whole entry): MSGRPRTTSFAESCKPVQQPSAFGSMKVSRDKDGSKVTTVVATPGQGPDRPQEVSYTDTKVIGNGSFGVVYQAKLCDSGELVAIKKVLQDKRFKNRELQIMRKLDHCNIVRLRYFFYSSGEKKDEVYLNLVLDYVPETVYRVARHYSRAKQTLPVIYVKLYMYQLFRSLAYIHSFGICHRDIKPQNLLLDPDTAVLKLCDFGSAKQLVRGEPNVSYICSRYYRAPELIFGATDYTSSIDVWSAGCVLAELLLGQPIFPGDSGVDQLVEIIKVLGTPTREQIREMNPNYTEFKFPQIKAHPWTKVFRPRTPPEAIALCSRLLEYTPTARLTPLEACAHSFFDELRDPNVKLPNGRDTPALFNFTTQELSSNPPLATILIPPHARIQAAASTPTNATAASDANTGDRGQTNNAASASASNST
Sequence of MAP kinase-interacting serine/threonine-protein kinase 2 (Q9HBH9 whole entry): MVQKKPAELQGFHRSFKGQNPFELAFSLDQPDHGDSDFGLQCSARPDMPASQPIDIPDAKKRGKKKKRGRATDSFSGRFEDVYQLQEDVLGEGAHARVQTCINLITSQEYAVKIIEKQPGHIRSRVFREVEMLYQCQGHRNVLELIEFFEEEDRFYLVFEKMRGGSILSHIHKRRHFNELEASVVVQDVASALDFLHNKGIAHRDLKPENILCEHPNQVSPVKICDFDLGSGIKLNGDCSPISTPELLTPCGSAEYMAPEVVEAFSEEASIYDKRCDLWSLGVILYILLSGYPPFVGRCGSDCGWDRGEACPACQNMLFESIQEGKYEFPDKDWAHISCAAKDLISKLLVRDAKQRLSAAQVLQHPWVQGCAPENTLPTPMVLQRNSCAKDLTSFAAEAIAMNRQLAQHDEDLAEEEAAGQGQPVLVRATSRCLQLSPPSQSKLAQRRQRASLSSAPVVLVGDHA
Sequence of Cell division cycle 7-related protein kinase (O00311 whole entry): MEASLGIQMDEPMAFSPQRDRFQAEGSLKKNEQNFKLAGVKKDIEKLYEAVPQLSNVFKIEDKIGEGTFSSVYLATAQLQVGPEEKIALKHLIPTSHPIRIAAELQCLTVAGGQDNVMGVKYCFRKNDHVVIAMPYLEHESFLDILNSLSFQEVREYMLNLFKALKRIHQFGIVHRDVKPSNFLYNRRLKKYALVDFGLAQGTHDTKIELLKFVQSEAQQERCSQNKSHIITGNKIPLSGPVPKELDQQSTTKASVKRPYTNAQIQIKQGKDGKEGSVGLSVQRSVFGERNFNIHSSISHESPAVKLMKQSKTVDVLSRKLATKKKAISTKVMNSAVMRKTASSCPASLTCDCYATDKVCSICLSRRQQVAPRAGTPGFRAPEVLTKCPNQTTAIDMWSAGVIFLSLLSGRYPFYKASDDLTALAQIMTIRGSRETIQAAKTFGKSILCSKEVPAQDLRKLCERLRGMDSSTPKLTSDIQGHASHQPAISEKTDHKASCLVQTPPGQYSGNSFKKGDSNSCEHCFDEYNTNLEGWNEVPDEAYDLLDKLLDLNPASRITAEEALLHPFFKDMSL
Sequence of Interleukin-1 receptor-associated kinase 4 (Q9NWZ3 whole entry): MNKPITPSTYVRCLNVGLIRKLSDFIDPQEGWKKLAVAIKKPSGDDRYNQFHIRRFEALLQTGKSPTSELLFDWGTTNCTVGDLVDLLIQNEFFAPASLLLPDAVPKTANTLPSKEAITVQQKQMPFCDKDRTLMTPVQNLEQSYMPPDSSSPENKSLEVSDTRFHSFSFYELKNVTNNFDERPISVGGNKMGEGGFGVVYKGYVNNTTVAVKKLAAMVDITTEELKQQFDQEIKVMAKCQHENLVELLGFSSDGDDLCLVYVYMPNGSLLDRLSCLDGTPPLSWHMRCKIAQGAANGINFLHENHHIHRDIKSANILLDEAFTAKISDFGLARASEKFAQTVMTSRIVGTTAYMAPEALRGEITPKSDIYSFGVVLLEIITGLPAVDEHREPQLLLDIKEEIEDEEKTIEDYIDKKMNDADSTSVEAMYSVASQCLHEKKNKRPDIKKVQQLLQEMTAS
Sequence of Serine/threonine-protein kinase pim-1 (P11309 whole entry): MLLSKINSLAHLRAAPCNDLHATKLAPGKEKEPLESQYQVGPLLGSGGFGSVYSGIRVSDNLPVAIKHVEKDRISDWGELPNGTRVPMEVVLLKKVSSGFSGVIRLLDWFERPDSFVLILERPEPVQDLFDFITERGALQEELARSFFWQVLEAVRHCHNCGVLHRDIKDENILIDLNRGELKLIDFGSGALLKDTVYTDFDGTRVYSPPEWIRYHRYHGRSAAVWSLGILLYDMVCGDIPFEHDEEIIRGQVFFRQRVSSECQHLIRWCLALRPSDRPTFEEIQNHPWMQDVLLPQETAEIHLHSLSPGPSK
Sequence of Aryl hydrocarbon receptor (P35869 whole entry): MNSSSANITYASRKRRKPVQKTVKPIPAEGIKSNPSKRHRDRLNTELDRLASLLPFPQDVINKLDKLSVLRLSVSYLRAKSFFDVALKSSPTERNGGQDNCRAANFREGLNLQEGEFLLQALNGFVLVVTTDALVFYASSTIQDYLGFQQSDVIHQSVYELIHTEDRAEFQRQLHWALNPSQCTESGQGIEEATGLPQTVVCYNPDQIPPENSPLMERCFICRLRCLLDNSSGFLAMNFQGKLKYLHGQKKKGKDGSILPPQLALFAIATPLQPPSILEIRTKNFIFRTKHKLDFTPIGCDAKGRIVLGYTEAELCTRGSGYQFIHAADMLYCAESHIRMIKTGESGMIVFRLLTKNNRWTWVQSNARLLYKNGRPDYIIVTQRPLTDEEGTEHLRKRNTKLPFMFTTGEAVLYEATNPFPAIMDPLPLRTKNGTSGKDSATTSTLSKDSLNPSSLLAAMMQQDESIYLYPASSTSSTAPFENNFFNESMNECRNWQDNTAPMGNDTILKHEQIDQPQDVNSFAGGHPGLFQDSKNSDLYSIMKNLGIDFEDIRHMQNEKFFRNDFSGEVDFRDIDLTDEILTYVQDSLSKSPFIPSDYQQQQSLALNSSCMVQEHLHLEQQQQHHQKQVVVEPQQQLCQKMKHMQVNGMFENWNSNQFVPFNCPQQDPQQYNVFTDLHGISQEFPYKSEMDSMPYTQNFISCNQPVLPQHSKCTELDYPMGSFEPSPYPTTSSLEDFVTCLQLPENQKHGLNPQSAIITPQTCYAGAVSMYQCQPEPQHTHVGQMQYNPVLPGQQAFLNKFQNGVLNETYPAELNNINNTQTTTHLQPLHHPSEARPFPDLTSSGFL

## Cc1cc2nc(N)sc2cc1C
[1]
  AC50: 10 µM (inconclusive)

## CN(C)CCNc1ncnc2c1sc1nc(-c3ccccc3)c3c(c12)CCCC3
[2]
  EC50: 21.7 µM (inactive)
[3]
  IC50: 10.4 µM (inactive)
[4]
  IC50: 7.72 µM (active)
[5]
  IC50: > 50 µM (inactive)
[6]
  AC50: 16.2 µM (active)
[7]
  AC50: 6.93 µM (active)
[8]
  IC50: > 20 µM (inactive)
[9]
  CC50: 31.1 µM (active)
[10]
  CC50: 7.38 µM (active)
[11]
  IC50: 13 µM (active)
[12]
  AC50: 19.4 µM (active)
[13]
  EC50: > 54.7 µM (inactive)
[14]
  EC50: > 54.7 µM (inactive)

## O=c1c(Oc2ccc3c(c2)OCO3)c(Cl)cnn1C1c2ccccc2-c2ccccc21
[15]
  IC50: > 20 µM (inactive)
[16]
  IC50: > 20 µM (inactive)

## COc1ccc(Oc2c(Cl)cnn(CC(=O)N(C3CCCCC3)C3CCCCC3)c2=O)cc1
[15]
  IC50: > 20 µM (inactive)
[16]
  IC50: 15.7 µM (inactive)

## CCCCNc1cc(-c2c[nH]c3ncccc23)ncn1
[17]
  Ki: 1 µM (active)
[18]
  Ki: 0.158 µM (active)
[19]
  Ki: 0.0631 µM (active)
[20]
  Ki: 0.0501 µM (active)
[21]
  Ki: 0.0158 µM (active)
[22]
  Ki: 1 µM (active)
[23]
  Ki: 0.00631 µM (active)

## Cn1c(SCC(N)=O)nnc1-c1sc2cc(Cl)ccc2c1Cl
[24]
  IC50: > 99 µM (inactive)
[25]
  IC50: > 99 µM (inactive)

## CC(C)Cn1c(=O)c2cc(Cl)ccc2n2c(SCc3ccc(Cl)cc3)nnc12
[24]
  IC50: > 99 µM (inactive)
[25]
  IC50: > 99 µM (inactive)

## CO[C@@H]1CS(=O)(=O)C2C(c3ccc(F)cc3)=NOC21 (stereo partly specified)
[26]
  EC50: > 100 µM (inactive)

## Cn1c(=O)n(-c2ccc(C(C)(C)C#N)cc2)c2c3cc(-c4cnc5ccccc5c4)ccc3ncc21 [DACTOLISIB]
[27]
  Ki: 1.26 µM (active)
